Assay results published in the NIST ThermoML archive (doi:10.1021/je100148h).

Experiment: xn = mol fraction of the nth substance listed
Details: Fluid (supercritical or subcritical phases), Burnett expansion method

CCC [propane] + O=C=O
Details | mass density [kg/m3]
360.01 K, 5054 kPa, x2 = 0.8017 | 90.4354
360.01 K, 6218.2 kPa, x2 = 0.5158 | 141.203
360.02 K, 178.29 kPa, x2 = 0.8017 | 2.6378
360.02 K, 245.35 kPa, x2 = 0.8017 | 3.6378
360.02 K, 337.31 kPa, x2 = 0.8017 | 5.0167
360.02 K, 463.19 kPa, x2 = 0.8017 | 6.9183
360.02 K, 634.97 kPa, x2 = 0.8017 | 9.5406
360.02 K, 868.69 kPa, x2 = 0.8017 | 13.1566
360.02 K, 3863.5 kPa, x2 = 0.8017 | 65.5911
360.02 K, 6495 kPa, x2 = 0.8017 | 124.684
370 K, 1659.1 kPa, x2 = 0.8017 | 25.0073
370.01 K, 476.31 kPa, x2 = 0.8017 | 6.9151
370.01 K, 653.23 kPa, x2 = 0.8017 | 9.5361
370.01 K, 894.13 kPa, x2 = 0.8017 | 13.1504
370.01 K, 1220.3 kPa, x2 = 0.8017 | 18.1344
370.01 K, 2244.1 kPa, x2 = 0.8017 | 34.4826
370.01 K, 3013.9 kPa, x2 = 0.8017 | 47.5475
370.01 K, 5267 kPa, x2 = 0.8017 | 90.3909
370.02 K, 205.87 kPa, x2 = 0.5158 | 2.9726
370.02 K, 283.04 kPa, x2 = 0.5158 | 4.1011
370.02 K, 346.79 kPa, x2 = 0.8017 | 5.0143
370.02 K, 388.65 kPa, x2 = 0.5158 | 5.6577
370.02 K, 992.19 kPa, x2 = 0.5158 | 14.8545
370.02 K, 1345.8 kPa, x2 = 0.5158 | 20.4921
370.02 K, 1815.3 kPa, x2 = 0.5158 | 28.2684
370.02 K, 2426.9 kPa, x2 = 0.5158 | 38.9941
370.02 K, 3206 kPa, x2 = 0.5158 | 53.7882
370.02 K, 4009.4 kPa, x2 = 0.8017 | 65.5581
370.02 K, 4171 kPa, x2 = 0.5158 | 74.1924
370.02 K, 5317.2 kPa, x2 = 0.5158 | 102.331
370.02 K, 6617 kPa, x2 = 0.5158 | 141.135
370.02 K, 6810.4 kPa, x2 = 0.8017 | 124.62
370.03 K, 532.61 kPa, x2 = 0.5158 | 7.8051
370.03 K, 728.17 kPa, x2 = 0.5158 | 10.7675
380.02 K, 188.21 kPa, x2 = 0.8017 | 2.6354
380.02 K, 259.02 kPa, x2 = 0.8017 | 3.6346
380.02 K, 399.41 kPa, x2 = 0.5158 | 5.6555
380.02 K, 671.46 kPa, x2 = 0.8017 | 9.5319
380.02 K, 919.55 kPa, x2 = 0.8017 | 13.1448
380.02 K, 1255.9 kPa, x2 = 0.8017 | 18.1264
380.02 K, 1386.9 kPa, x2 = 0.5158 | 20.4838
380.02 K, 1709 kPa, x2 = 0.8017 | 24.9958
380.02 K, 1873.6 kPa, x2 = 0.5158 | 28.257
380.02 K, 3114.5 kPa, x2 = 0.8017 | 47.5261
380.02 K, 3326.5 kPa, x2 = 0.5158 | 53.7656
380.02 K, 4154.3 kPa, x2 = 0.8017 | 65.5297
380.02 K, 4347.6 kPa, x2 = 0.5158 | 74.1614
380.02 K, 5478.5 kPa, x2 = 0.8017 | 90.3475
380.02 K, 5579.3 kPa, x2 = 0.5158 | 102.287
380.02 K, 7122.7 kPa, x2 = 0.8017 | 124.564
380.03 K, 356.25 kPa, x2 = 0.8017 | 5.0122
380.03 K, 489.43 kPa, x2 = 0.8017 | 6.9121
380.03 K, 547.58 kPa, x2 = 0.5158 | 7.802
380.03 K, 749.01 kPa, x2 = 0.5158 | 10.7633
380.03 K, 1021.4 kPa, x2 = 0.5158 | 14.8485
380.03 K, 2314.7 kPa, x2 = 0.8017 | 34.4669
380.03 K, 2510.4 kPa, x2 = 0.5158 | 38.978
380.03 K, 7010.3 kPa, x2 = 0.5158 | 141.07
380.04 K, 211.45 kPa, x2 = 0.5158 | 2.9713
380.04 K, 290.81 kPa, x2 = 0.5158 | 4.0993
390.02 K, 2384.9 kPa, x2 = 0.8017 | 34.4507
390.02 K, 3446.3 kPa, x2 = 0.5158 | 53.7433
390.02 K, 5838.5 kPa, x2 = 0.5158 | 102.241
390.03 K, 193.15 kPa, x2 = 0.8017 | 2.6342
390.03 K, 217.06 kPa, x2 = 0.5158 | 2.9702
390.03 K, 265.87 kPa, x2 = 0.8017 | 3.6329
390.03 K, 365.64 kPa, x2 = 0.8017 | 5.0098
390.03 K, 410.13 kPa, x2 = 0.5158 | 5.6532
390.03 K, 502.51 kPa, x2 = 0.8017 | 6.9089
390.03 K, 689.66 kPa, x2 = 0.8017 | 9.5275
390.03 K, 769.82 kPa, x2 = 0.5158 | 10.759
390.03 K, 944.86 kPa, x2 = 0.8017 | 13.1385
390.03 K, 1050.5 kPa, x2 = 0.5158 | 14.8425
390.03 K, 1428 kPa, x2 = 0.5158 | 20.475
390.03 K, 1758.8 kPa, x2 = 0.8017 | 24.9833
390.03 K, 1931.7 kPa, x2 = 0.5158 | 28.245
390.03 K, 2593.4 kPa, x2 = 0.5158 | 38.9614
390.03 K, 3214.7 kPa, x2 = 0.8017 | 47.5025
390.03 K, 4298.5 kPa, x2 = 0.8017 | 65.4967
390.03 K, 4522.9 kPa, x2 = 0.5158 | 74.1282
390.03 K, 5688.3 kPa, x2 = 0.8017 | 90.3013
390.03 K, 7399 kPa, x2 = 0.5158 | 141.004
390.03 K, 7432.4 kPa, x2 = 0.8017 | 124.497
390.04 K, 298.57 kPa, x2 = 0.5158 | 4.0977
390.04 K, 562.52 kPa, x2 = 0.5158 | 7.7989
390.04 K, 1291.3 kPa, x2 = 0.8017 | 18.1174
400.02 K, 970.17 kPa, x2 = 0.8017 | 13.1371
400.03 K, 272.65 kPa, x2 = 0.8017 | 3.6324
400.03 K, 375.15 kPa, x2 = 0.8017 | 5.0093
400.03 K, 515.7 kPa, x2 = 0.8017 | 6.908
400.03 K, 577.33 kPa, x2 = 0.5158 | 7.7944
400.03 K, 707.92 kPa, x2 = 0.8017 | 9.5262
400.03 K, 790.53 kPa, x2 = 0.5158 | 10.7528
400.03 K, 1079.5 kPa, x2 = 0.5158 | 14.8335
400.03 K, 1326.5 kPa, x2 = 0.8017 | 18.1154
400.03 K, 1468.7 kPa, x2 = 0.5158 | 20.4633
400.03 K, 1808.4 kPa, x2 = 0.8017 | 24.9801
400.03 K, 2454.9 kPa, x2 = 0.8017 | 34.4454
400.03 K, 3565.3 kPa, x2 = 0.5158 | 53.7096
400.03 K, 6095.5 kPa, x2 = 0.5158 | 102.176
400.03 K, 7739.4 kPa, x2 = 0.8017 | 124.476
400.03 K, 7784.2 kPa, x2 = 0.5158 | 140.912
400.04 K, 198.07 kPa, x2 = 0.8017 | 2.6338
400.04 K, 222.65 kPa, x2 = 0.5158 | 2.9684
400.04 K, 306.29 kPa, x2 = 0.5158 | 4.0953
400.04 K, 420.82 kPa, x2 = 0.5158 | 5.6498
400.04 K, 1989.5 kPa, x2 = 0.5158 | 28.2277
400.04 K, 2676 kPa, x2 = 0.5158 | 38.9372
400.04 K, 3314.3 kPa, x2 = 0.8017 | 47.4952
400.04 K, 4441.8 kPa, x2 = 0.8017 | 65.4859
400.04 K, 4696.7 kPa, x2 = 0.5158 | 74.0811
400.04 K, 5896.6 kPa, x2 = 0.8017 | 90.2853
